Where no end group is shown, it is not given here.
How the values were obtained:
[1] = test system: NK92 cells; assay: Recovery of cytotoxicity of NK92 cells decreased by TGF-β (calcein-AM release); format: cell-based; conditions: effector NK92 cells pretreated with 20 μM peptide or 5 μM SB431542 plus 10 ng/ml TGF-β; target cells H460, H3122, K562; E:T 20:1; 4 hours
Method: NK92 cells were cultured in a 37° C. CO2 incubator (water jacketed incubator, Thermo electron corporation) supplied with 5% CO2 by adding an α-MEM (Welgene) culture medium added with 12.5% fetal bovine serum (FBS, Corning, united states origin, 35-015-CV) and 12.5% horse serum (Gibco) according to ATCC culture conditions with 0.2 mM myo-inositol, 0.1 mM 2-mercaptoethanol, 0.02 mM folic acid, 1% antibiotics-antimycotic (Gibco) and IL-2 cytokine (Peprotech) at a concentration of 20 ng/ml to be used as a culture medium.
The cells were cultured in about 20 to 30 ml in a T-75 flask (Thermo) at a concentration of 1×10^5 cells/ml, and centrifuged at 1000 rpm for 5 minutes every 2 to 3 days using a centrifuge (Beckman Coulter) to remove the supernatant, and then the culture medium was replaced. […]
The target cells stained with calcein-AM in Example [2-2] were dispensed in a 96-well plate, respectively, and treated with the effector cells prepared in Example [2-1]. […] The culture medium cultured above was centrifuged at 100 rcf for 5 minutes to separate the supernatant, and 100 μl each was dispensed into a 96-well black plate, and then ELISA assay (Fluorescence 480 nm/530 nm, SpectraMax i3x Molecular Device) was performed.

[2] = test system: NK92 cells; assay: Fratricide inhibition of NK cells; format: cell-based; conditions: NK92 target cells pretreated with 20 μM peptide or 5 μM SB431542 plus 10 ng/ml TGF-β; fresh NK92 (20:1) or primary NK (10:1) effector cells; 4 hours
Method: To this end, 1×10^6 cells/ml of the NK92 cells cultured in the same manner as Example [2-1] were cultured for 1 hour at 37° C. with a culture medium added with 5 μl of calcein-AM (Invitrogen) and stained, and then centrifuged at 1000 rpm for 5 minutes and washed to be prepared as ‘target cells.’ As described above, the target cells stained with calcein-AM were dispensed in a 96-well plate, respectively, and treated with untreated (fresh) NK92 cells or primary NK cells as effector cells at the ratio of 20:1 or 10:1 in the same manner as Example [2-3], and cultured at 37° C. for 4 hours. The culture medium cultured above was centrifuged at 100 rcf for 5 minutes to separate the supernatant, and 100 μl each was dispensed into a 96-well black plate, and then ELISA assay (Fluorescence 480 nm/530 nm, SpectraMax i3x Molecular Device) was performed.

[3] = test system: H460 lung cancer cell line; assay: Recovery of sensitivity of NK cells to cancer cells decreased by TGF-β; format: cell-based; conditions: H460 target cells pretreated with 20 μM peptide or 5 μM SB431542 plus 10 ng/ml TGF-β; fresh NK92 effector cells, E:T 20:1; 4 hours
Method: To this end, first, 1×10^5 cells/ml of a H460 lung cancer cell line was added with 20 μM the peptide of Example [1-5] or 5 μM a TGF-β signal inhibitor SB431542, respectively, cultured at 37° C. for 2 hours, and then added with 10 ng/ml of TGF-β, and cultured again for 24 hours under the same conditions, respectively. Then, the cells were added with 20 μM the peptide of Example [1-5] or 5 μM SB431542, cultured at 37° C. for 2 hours, and then added with 10 ng/ml of TGF-β, and cultured under the same conditions for 24 hours, respectively. 1×10^6 cells/ml of the H460 cells cultured above were cultured for 1 hour at 37° C. with a culture medium added with 5 μl of calcein-AM (Invitrogen) and stained, and then centrifuged at 1000 rpm for 5 minutes and washed to be prepared as ‘target cells.’
As described above, the target cells stained with calcein-AM were dispensed in a 96-well plate, respectively, and treated with untreated (fresh) NK92 cells as effector cells at an E:T ratio of 20:1, and cultured at 37° C. for 4 hours. The culture medium cultured above was centrifuged at 100 rcf for 5 minutes to separate the supernatant, and 100 μl each was dispensed into a 96-well black plate, and then ELISA assay (Fluorescence 480 nm/530 nm, SpectraMax i3x Molecular Device) was performed.

[4] = test system: primary NK cells; assay: Recovery of cytotoxicity of primary NK cells decreased by TGF-β (calcein-AM release); format: cell-based, human; conditions: effector primary NK cells pretreated with 20 μM peptide plus 10 ng/ml TGF-β; target cells H460, H3122, K562; E:T 10:1; 4 hours
Method: 2 μl of Rosettesep Human CD3 depletion cocktail (STEMCELL technologies, catalog #15621) per 1 ml of blood was added to umbilical cord blood (IRB approval number P01-201610-31-002) donated from the hospital and reacted for 20 minutes. […] At this time, it could be noted that the blood and the Ficoll layer were not mixed. To separate the cell layer from the blood, red blood cells and CD3 cells were isolated and discharged from the blood by centrifugation under conditions of 2000 rpm and Decel 0 for 25 minutes using a centrifuge (Beckman Coulter). The CD3-isolated cells reacted with 10 ml of an ACK buffer for 10 minutes to remove remaining red blood cells, and then washed twice using phosphate-buffered saline (PBS) added with 2% FBS. The washing was performed by centrifuging at 1500 rpm for 5 minutes using a centrifuge (Beckman Coulter) to remove the supernatant. The cells obtained above were used to be cultured as NK cells.
The NK cells were cultured by adding alpha-MEM (Welgene) added with 10% FBS (Corning, United States origin, 35-015-CV) with 10 ng/ml IL-15 (Peprotech), 10 ng/ml IL-21 (Peprotech), […] hydrocortisone (Peprotech) and 1% antibiotics-antimycotic (Gibco). […]

Compound	cytotoxicity of NK92 cells [1]	fratricide activity of the NK cells [2]	cytotoxicity of the NK cells for treated H460 cells [3]	cytotoxicity of primary NK cells [4]
NC(=O)c1ccc(-c2nc(-c3ccc4c(c3)OCO4)c(-c3ccccn3)[nH]2)cc1 [SB431542]	recovered	significantly reduced	recovered again	
GSKKVILDLPLVI [peptide of Example [1-5]]	recovered		recovered again	equally confirmed

Reference: patent US20250230190A1, “COMPOSITION FOR ENHANCING ACTIVITY OF NATURAL KILLER CELLS” (Ingenium Therapeutics, priority 2021, published 2025)
